Values quoted from earlier work, collected in patent publication US20250319028A1, “PHARMACEUTICAL FORMULATION COMPRISING TACROLIMUS, METHOD FOR THE PREPARATION THEREOF AND USE” (PHARMATHEN S.A., priority 2021, published 2025).

How the values were obtained:
[1] = reported, patients

SMILES | Solubility in ethanol (ethanol) | Solubility in heptane (heptane) | Solubility in water (water) | Overall incidence of drug-induced nephrotoxicity [1]
C=CC[C@@H]1/C=C(\C)C[C@H](C)C[C@H](OC)[C@H]2O[C@@](O)(C(=O)C(=O)N3CCCC[C@H]3C(=O)O[C@H](/C(C)=C/[C@@H]3CC[C@@H](O)[C@H](OC)C3)[C@H](C)[C@@H](O)CC1=O)[C@H](C)C[C@@H]2OC [Tacrolimus monohydrate] | freely soluble | practically insoluble | practically insoluble | 
C=CC[C@@H]1/C=C(\C)C[C@H](C)C[C@H](OC)[C@H]2O[C@@](O)(C(=O)C(=O)N3CCCC[C@H]3C(=O)O[C@H](/C(C)=C/[C@@H]3CC[C@@H](O)[C@H](OC)C3)[C@H](C)[C@@H](O)CC1=O)[C@H](C)C[C@@H]2OC [Tacrolimus] |  |  |  | ≤ 44%
